Assay results as given in patent US6350586B2, “Method for isolating inhibitors of protease activity” (Long Island Jewish Medical Center, priority 1998, dated 2002).

Columns and labels:
Format in all cases: biochemical
[1] = Elastase assay using Suc(Ala)3-nA (SANA); details: room temperature, 20 minutes
Description: Elastase assay using Suc(Ala)3-nA (SANA). The following method was used for testing PPE (CalBio-chem) activity. A 25 mM stock solution of SANA (Sigma) in dimethyl sulfoxide (Sigma), 1 mg/ml stock solution of elastase in distilled water, and 0.2 M Tris buffer pH 8.0 with 0.1% Triton X-100(Sigma) was prepared. The assay contained 12 μl of SANA and 50 μl of the enzyme sample and was made up to 200 μl with 0.2 M Tris buffer. All reactions were prepared in 96-well Falcon 3097 flat-bottom microtiter plates (Beckton Dickinson) and carried out at room temperature. The optical density of each digest was recorded for 20 min, at 30 second intervals, at 405 nm using a Bio-Whittaker microplate reader 2001 (Bio-Whittaker).
(§1) Comparison of Succinyl Elastin with SANA. The sensitivity of the succinylated elastin assay was compared to an elastase assay that uses SANA, a synthetic elastase substrate. 50 μl of 1000, 100, 10 and 1 ng/ml elastase was used to digest 100 μg of succinylated elastin and 12 μl of 12 mM SANA. The succinylated elastin digest was carried out at 37° C. for 1 hour. The SANA elastase assay was carried out at room temperature for 20 minutes. Optical densities were measured at 450 nm for succinylated elastin assay and 405 nm for SANA elastase assay. Blank reaction contained buffer/enzyme. Blank reading was subtracted from the final reaction optical density to give corrected absorbance values. Standard deviations are given in parentheses.

[2] = tested on: succinylated casein; assay: Protease assay using succinylated casein substrate with TNBSA detection; details: 100 μg succinylated casein, 37° C., 1 hour
Description: (§2) Assay Conditions. Elastase assay using succinylated elastin: A modified version of the method described in the Pierce Quanticleave™ protease assay kit II (Pierce Chemical Co.) was used for the elastase assay. The assay contained 100 μg of succinylated substrate (gelatin, elastin, or casein) and 50 μl of enzyme sample to be assayed, and the reaction was brought up to a final volume of 150 μl with BupH buffer or 50 mM sodium borate, pH 8.0 (50 mM sodium borate, pH 8.0, is a suitable substitute for BupH buffer). All reactions were prepared in 96-well Falcon 3097 flat-bottom microtiter plates (Beckton Dickinson, N.J.) The reactions were then incubated at 37° C. for 60 min. Fifty microliters of a 0.03% solution of TNBSA was then added to each reaction and left for 20 min at room temperature. The optical density of each reaction was then determined using a Bio-Whittaker microplate reader 2001 (Bio-Whittaker, Walkersville, Md.) at 450 nm. Blank reactions were also prepared which contained buffer and protease, buffer and substrate and buffer only. All sample dilutions were prepared in BupH buffer or 50 mM sodium borate buffer, pH 8.0, as were stock solutions of 1 mg/ml elastase and trypsin.
(§3) Comparison of Elastase and Trypsin Substrate Affinities. […] and 1 μg/ml of elastase and trypsin were assayed using succinylated elastin, gelatin, and casein substrate. Enzyme dilutions were prepared from a 1 mg/ml stock of trypsin and elastase in BupH buffer or 50 mM sodium borate, pH 8.0. Assays contained 50 μl enzyme and 100 μg succinylated substrate and were made up to a volume of 150 μl with BupH buffer or 50 mM sodium borate buffer, pH 8.0. Digests were incubated at 37° C. for 1 hour. All digests were prepared in duplicate and optical densities were measured at 450 nm. Blank reaction contained buffer/enzyme. Blank reading was subtracted from the final reaction optical density to give corrected absorbance values. Standard deviations are given in parentheses. The activity of elastase varies with substrate in the following order: elastin>casein>gelatin. The activity of trypsin varies with substrate in the following order: gelatin>casein>elastin. Substrate affinity was evaluated by the level of absorbance at 450 nm each protease generated with each substrate.

[3] = tested on: succinylated gelatin; assay: Protease assay using succinylated gelatin substrate with TNBSA detection; details: 100 μg succinylated gelatin, 37° C., 1 hour
Description: as §2, §3

[4] = tested on: succinylated elastin; assay: Protease assay using succinylated elastin substrate with TNBSA detection; details: 37° C., 1 hour; for corrected absorbance at 450 nm, substrate Elastin: 100 μg succinylated elastin
Description: as §2, §3, §1

Row | Molecule | corrected optical density at 405 nm, SANA ([1]; elastase 1 ng/ml) | corrected optical density at 405 nm, SANA ([1]; elastase 10 ng/ml) | corrected optical density at 405 nm, SANA ([1]; elastase 100 ng/ml) | corrected optical density at 405 nm, SANA ([1]; elastase 1000 ng/ml) | corrected absorbance at 450 nm, substrate Casein ([2]; protease concentration 1) | corrected absorbance at 450 nm, substrate Casein ([2]; protease concentration 10) | corrected absorbance at 450 nm, substrate Gelatin ([3]; protease concentration 1) | corrected absorbance at 450 nm, substrate Gelatin ([3]; protease concentration 10) | corrected optical density at 450 nm, Succinylated Elastin ([4]; elastase 1 ng/ml) | corrected optical density at 450 nm, Succinylated Elastin ([4]; elastase 10 ng/ml) | corrected optical density at 450 nm, Succinylated Elastin ([4]; elastase 100 ng/ml) | corrected optical density at 450 nm, Succinylated Elastin ([4]; elastase 1000 ng/ml) | corrected absorbance at 450 nm, substrate Elastin ([4]; protease concentration 1) | corrected absorbance at 450 nm, substrate Elastin ([4]; protease concentration 10)
1 | Elastase: Porcine pancreatic elastase (PPE; 297 units/mg) (EC 3.4.21.36) purchased from CalBiochem | 0 | 0 | 0.011 (±0.004) | 0.129 (±0.026) | 0.071 | 0.28 | 0.037 | 0.120 | 0.0086 (±0.003) | 0.01 (±0.001) | 0.015 (±0.004) | 0.054 (±0.006) | 0.085 | 0.377
2 | Trypsin: Protease from the Pierce Quanticleave protease assay kit II (13564 units/mg) (protein, UniProt P00760 24-246, looked up) Serine protease 1: IVGGYTCGANTVPYQVSLNSGYHFCGGSLINSQWVVSAAHCYKSGIQVRLGEDNINVVEGNEQFISASKSIVHPSYNSNTLNNDIMLIKLKSAASLNSRVASISLPTSCASAGTQCLISGWGNTKSSGTSYPDVLKCLKAPILSDSSCKSAYPGQITSNMFCAGYLEGGKDSCQGDSGGPVVCSGKLQGIVSWGSGCAQKNKPGVYTKVCNYVSWIKQTIASN |  |  |  |  | 0.106 | 0.158 | 0.179 | 0.354 |  |  |  |  | 0.024 | 0.049
